Test results published in patent US10407422B2, “Triazolopyridine inhibitors of myeloperoxidase” (priority 2015, dated 2019).
pIC50: −log10 of the molar value.

Tests used:
myeloperoxidase (MPO) [1] = biological target: T1, myeloperoxidase (MPO) (Homo sapiens (Human), UniProt P05164); assay: MPO chlorination assay (APF assay); format: biochemical; conditions: potency range class
Method in brief: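 Chlorinating activity followed by APF cleavage to fluorescein (485/535 nm, 3 min kinetic read) after adding APF and 10 μM H2O2. Beforehand, 200 pM enzyme, compound and 120 mM NaCl sat 10 min at room temperature in 100 mM KPi, pH 7.4. Initial-rate slopes gave % inhibition; IC50 by Hill-slope fit.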

myeloperoxidase (MPO) [2] = biological target: T1, myeloperoxidase (MPO); assay: MPO peroxidation assay (Amplex Red assay); format: biochemical; conditions: potency range class
Method in brief: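 IC50 values come from a four-parameter fit of rates taken from the linear 180-540 s portion of a 15 min kinetic read of resorufin (Ex 535/Em 590 nm). Amplex Red (200 μM) plus 10 mM H2O2 was added after a 10 min room-temperature preincubation of inhibitor with 200 pM MPO and 40 nM H2O2 in 100 mM KPi, pH 7.4.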

T1 sequence (P05164 49-745): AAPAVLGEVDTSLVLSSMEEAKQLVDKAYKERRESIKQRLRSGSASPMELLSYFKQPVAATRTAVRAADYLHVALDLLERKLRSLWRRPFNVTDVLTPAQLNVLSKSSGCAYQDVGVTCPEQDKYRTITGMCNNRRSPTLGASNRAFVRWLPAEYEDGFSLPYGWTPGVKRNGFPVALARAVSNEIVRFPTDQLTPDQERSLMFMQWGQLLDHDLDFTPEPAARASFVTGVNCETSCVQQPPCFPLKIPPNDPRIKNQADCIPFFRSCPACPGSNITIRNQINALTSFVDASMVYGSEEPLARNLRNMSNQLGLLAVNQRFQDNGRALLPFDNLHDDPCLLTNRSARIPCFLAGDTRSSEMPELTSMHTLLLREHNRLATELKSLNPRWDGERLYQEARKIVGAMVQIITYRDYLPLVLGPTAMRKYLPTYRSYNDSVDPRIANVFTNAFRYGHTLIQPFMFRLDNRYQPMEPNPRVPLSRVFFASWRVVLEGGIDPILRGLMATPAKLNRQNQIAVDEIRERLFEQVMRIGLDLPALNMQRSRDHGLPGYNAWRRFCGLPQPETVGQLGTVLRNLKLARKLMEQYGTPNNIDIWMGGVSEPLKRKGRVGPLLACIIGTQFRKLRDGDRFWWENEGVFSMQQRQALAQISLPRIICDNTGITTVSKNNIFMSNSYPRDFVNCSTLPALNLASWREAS

SMILES | pIC50 (myeloperoxidase (MPO) [1]) | pIC50 (myeloperoxidase (MPO) [2])
Nc1cc(Cc2cnn(CC3CC4(CCNCC4)C3)c2)c2nn[nH]c2n1 [Example 274, 7-[(1-{7-Azaspiro[3.5]nonan-2-ylmethyl}-1H-pyrazol-4-yl)methyl]-3H-[1,2,3]triazolo[4,5-b]pyridin-5-amine] | 6.00 to 7.00 | 7.00 to 9.00
Nc1cc(Cc2cnn(Cc3cccc(N4CCNCC4)c3)c2)c2nn[nH]c2n1 [Example 217, 7-[(1-{[3-(Piperazin-1-yl)phenyl]methyl}-1H-pyrazol-4-yl)methyl]-3H-[1,2,3]triazolo[4,5-b]pyridin-5-amine] | 6.00 to 7.00 | 7.00 to 9.00
Cc1cccc(-n2cc(Cc3cc(N)nc4[nH]nnc34)cn2)c1 [Example 25, 7-((1-(3-Methylphenyl)-1H-pyrazol-4-yl)methyl)-3H-[1,2,3]triazolo[4,5-b]pyridin-5-amine] | 6.00 to 7.00 | 7.00 to 9.00
Nc1cc(Cc2cnn(-c3cccc(F)c3)c2)c2nn[nH]c2n1 [Example 3, 7-((1-(3-Fluorophenyl)-1H-pyrazol-4-yl)methyl)-3H-[1,2,3]triazolo[4,5-b]pyridin-5-amine] | 6.00 to 7.00 | 7.00 to 9.00
Nc1cc(Cc2cnn(C3CCCC3)c2)c2nn[nH]c2n1 [Example 54, 7-((1-Cyclopentyl-1H-pyrazol-4-yl)methyl)-3H-[1,2,3]triazolo[4,5-b]pyridin-5-amine] | 7.00 to 9.00 | 7.00 to 9.00
Cc1ccnc(-n2cc(Cc3cc(N)nc4[nH]nnc34)cn2)c1 [Example 19, 7-((1-(4-Methylpyridin-2-yl)-1H-pyrazol-4-yl)methyl)-3H-[1,2,3]triazolo[4,5-b]pyridin-5-amine] | 7.00 to 9.00 | 7.00 to 9.00
Nc1cc(Cc2cnn(Cc3ccccc3Oc3ccccc3)c2)c2nn[nH]c2n1 [Example 264, 7-({1-[(2-Phenoxyphenyl)methyl]-1H-pyrazol-4-yl}methyl)-3H-[1,2,3]triazolo[4,5-b]pyridin-5-amine] | 6.00 to 7.00 | 7.00 to 9.00
Cc1[nH]c(-c2ccccc2)nc1-c1cccc(Cn2cc(Cc3cc(N)nc4[nH]nnc34)cn2)c1 [Example 279, 7-[(1-{[3-(5-Methyl-2-phenyl-1H-imidazol-4-yl)phenyl]methyl}-1H-pyrazol-4-yl)methyl]-3H-[1,2,3]triazolo[4,5-b]pyridin-5-amine] | 6.00 to 7.00 | 7.00 to 9.00
Nc1cc(Cn2nnc3ccc(Cc4ccccc4)cc32)c2nn[nH]c2n1 [Example 170, 7-[(6-Benzyl-1H-1,2,3-benzotriazol-1-yl)methyl]-3H-[1,2,3]triazolo[4,5-b]pyridin-5-amine] | 6.00 to 7.00 | 6.00 to 7.00
Cc1cncc(Oc2cccc(Cn3cc(Cc4cc(N)nc5[nH]nnc45)cn3)c2)n1 [Example 140, 7-{[1-({3-[(6-Methylpyrazin-2-yl)oxy]phenyl}methyl)-1H-pyrazol-4-yl]methyl}-3H-[1,2,3]triazolo[4,5-b]pyridin-5-amine] | 6.00 to 7.00 | 7.00 to 9.00
Nc1cc(Cn2nnc3cc(Cl)ccc32)c2nn[nH]c2n1 [Example 168, 7-[(5-Chloro-1H-1,2,3-benzotriazol-1-yl)methyl]-3H-[1,2,3]triazolo[4,5-b]pyridin-5-amine] | 6.00 to 7.00 | 7.00 to 9.00
Nc1cc(Cc2cnn(Cc3cccc(OC[C@@H]4CCNC4)c3)c2)c2nn[nH]c2n1 [Example 244] | 7.00 to 9.00 | 7.00 to 9.00
Nc1cc(Cc2cnn(Cc3cccc4c3Cc3ccccc3-4)c2)c2nn[nH]c2n1 [Example 266, 7-{[1-(9H-Fluoren-1-ylmethyl)-1H-pyrazol-4-yl]methyl}-3H-[1,2,3]triazolo[4,5-b]pyridin-5-amine] | 6.00 to 7.00 | 7.00 to 9.00
Nc1cc(Cc2cnn(Cc3ccc4c(c3)C(c3ccccc3)CNC4)c2)c2nn[nH]c2n1 (centres unmarked) [Example 261, 7-({1-[(4-Phenyl-1,2,3,4-tetrahydroisoquinolin-6-yl)methyl]-1H-pyrazol-4-yl}methyl)-3H-[1,2,3]triazolo[4,5-b]pyridin-5-amine] | 7.00 to 9.00 | 7.00 to 9.00

Further lines, results first:

pIC50 (myeloperoxidase (MPO) [1]) | pIC50 (myeloperoxidase (MPO) [2]) | SMILES
6.00 to 7.00 | 7.00 to 9.00 | CN(C)CCN(C)C(=O)c1ccc(Cn2cc(Cc3cc(N)nc4[nH]nnc34)cn2)cc1 [Example 77, 4-{[4-({5-Amino-3H-[1,2,3]triazolo[4,5-b]pyridin-7-yl}methyl)-1H-pyrazol-1-yl]methyl}-N-[2-(dimethylamino)ethyl]-N-methylbenzamide]
6.00 to 7.00 | 7.00 to 9.00 | Nc1cc(Cc2cnn(Cc3ccc4ncccc4c3)c2)c2nn[nH]c2n1 [Example 128, 7-((1-(Quinolin-6-ylmethyl)-1H-pyrazol-4-yl)methyl)-3H-[1,2,3]triazolo[4,5-b]pyridin-5-amine]
6.00 to 7.00 | 6.00 to 7.00 | Nc1cc(Cc2cnn(Cc3ccc(C(=O)N4CCC(O)C4)cc3)c2)c2nn[nH]c2n1 (centres unmarked) [Example 84, 1-(4-{[4-({5-Amino-3H-[1,2,3]triazolo[4,5-b]pyridin-7-yl}methyl)-1H-pyrazol-1-yl]methyl}benzoyl)pyrrolidin-3-ol]
6.00 to 7.00 | 7.00 to 9.00 | Nc1cc(Cc2cnn(Cc3ccc(-n4cccn4)cc3)c2)c2nn[nH]c2n1 [Example 56, 7-[(1-{[4-(1H-Pyrazol-1-yl)phenyl]methyl}-1H-pyrazol-4-yl)methyl]-3H-[1,2,3]triazolo[4,5-b]pyridin-5-amine]
7.00 to 9.00 | 7.00 to 9.00 | Nc1cc(Cc2cnn(Cc3cccc(OC(F)F)c3)c2)c2nn[nH]c2n1 [Example 61, 7-((1-(3-(Difluoromethoxy)benzyl)-1H-pyrazol-4-yl)methyl)-3H-[1,2,3]triazolo[4,5-b]pyridin-5-amine]
6.00 to 7.00 | 7.00 to 9.00 | NCc1cccc(Cn2cc(Cc3cc(N)nc4[nH]nnc34)cn2)c1 [Example 249, 7-[(1-{[3-(Aminomethyl)phenyl]methyl}-1H-pyrazol-4-yl)methyl]-3H-[1,2,3]triazolo[4,5-b]pyridin-5-amine]
6.00 to 7.00 | 7.00 to 9.00 | Nc1cc(Cc2cnn(Cc3ccc(CN4CCOCC4)cc3)c2)c2nn[nH]c2n1 [Example 108, 7-((1-(4-(Morpholinomethyl)benzyl)-1H-pyrazol-4-yl)methyl)-3H-[1,2,3]triazolo[4,5-b]pyridin-5-amine]
6.00 to 7.00 | 7.00 to 9.00 | CN(C)CCCNC(=O)c1ccc(Cn2cc(Cc3cc(N)nc4[nH]nnc34)cn2)cc1 [Example 89, 4-{[4-({5-Amino-3H-[1,2,3]triazolo[4,5-b]pyridin-7-yl}methyl)-1H-pyrazol-1-yl]methyl}-N-[3-(dimethylamino)propyl]benzamide]
6.00 to 7.00 | 6.00 to 7.00 | COC(=O)[C@@H]1C[C@@H](Oc2cccc(Cn3cc(Cc4cc(N)nc5[nH]nnc45)cn3)c2)CN1 [Example 245, Methyl (2S,4R)-4-(3-{[4-({5-amino-3H-[1,2,3]triazolo[4,5-b]pyridin-7-yl}methyl)-1H-pyrazol-1-yl]methyl}phenoxy)pyrrolidine-2-carboxylate]
7.00 to 9.00 | 7.00 to 9.00 | Nc1cc(Cc2cnn(Cc3ccc4c(c3)CNC4)c2)c2nn[nH]c2n1 [Example 176, 7-((1-(Isoindolin-5-ylmethyl)-1H-pyrazol-4-yl)methyl)-3H-[1,2,3]triazolo[4,5-b]pyridin-5-amine]
6.00 to 7.00 | 7.00 to 9.00 | NC(=O)CNC(=O)c1ccc(Cn2cc(Cc3cc(N)nc4[nH]nnc34)cn2)cc1 [Example 90, 2-[(4-{[4-({5-Amino-3H-[1,2,3]triazolo[4,5-b]pyridin-7-yl}methyl)-1H-pyrazol-1-yl]methyl}phenyl)formamido]acetamide]
